Laboratory results as given in the supplement of paper PMC10883282.
± gives the standard deviation of the averaged measurements.

System: SW872
Experiment: relative viability vs DMSO control (72 h) (fraction); higher = more viable cells
Procedure, shortened: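 Sarcoma cell lines were seeded in 384-well plates at densities chosen for 80–90% confluence, then 24 h later given 2.5 µl of serially diluted compound drawn from source plates spanning 10 mM to 0.0002 mM. They were held 72 h at 37 °C, 5% CO2, with 0.1% DMSO vehicle and a 5 µM positive control included. Relative viability was read with ATPLite as percent growth and averaged over up to triplicate wells. Rescaling placed full at 1 and none at 0.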

Row | Compound | relative viability (0.00017 µM) | relative viability (0.00051 µM) | relative viability (0.00152 µM) | relative viability (0.00457 µM) | relative viability (0.01372 µM) | relative viability (0.04115 µM) | relative viability (0.1235 µM) | relative viability (0.3704 µM) | relative viability (1.111 µM) | relative viability (3.333 µM) | relative viability (10 µM)
1 | CO[C@H]1C[C@@H]2CC[C@@H](C)[C@@](O)(O2)C(=O)C(=O)N2CCCC[C@H]2C(=O)O[C@H]([C@H](C)C[C@@H]2CC[C@@H](OP(C)(C)=O)[C@H](OC)C2)CC(=O)[C@H](C)/C=C(\C)[C@@H](O)[C@@H](OC)C(=O)[C@H](C)C[C@H](C)/C=C/C=C/C=C/1C [Ridaforolimus] | 0.974 ± 0.036 | 0.833 ± 0.034 | 0.747 ± 0.021 | 0.7118 ± 0.0071 | 0.626 ± 0.035 | 0.6 ± 0.034 | 0.5981 ± 0.0039 | 0.597 ± 0.0072 | 0.579 ± 0.012 | 0.565 ± 0.017 | 0.565 ± 0.015
2 | CCc1cc2c(cc1N1CCC(N3CCOCC3)CC1)C(C)(C)c1[nH]c3cc(C#N)ccc3c1C2=O [Alectinib] | 1.03 ± 0.043 | 1.02 ± 0.063 | 1.05 ± 0.069 | 1.04 ± 0.036 | 1.07 ± 0.053 | 1.06 ± 0.046 | 1.09 ± 0.062 | 1.07 ± 0.069 | 1.09 ± 0.058 | 1.07 ± 0.076 | 1.08 ± 0.065
3 | C[C@@H](c1ccc2nccn2c1)n1nnc2ncc(-c3cnn(C)c3)nc21 [Volitinib] | 1.06 ± 0.029 | 1.06 ± 0.034 | 1.08 ± 0.027 | 1.08 ± 0.051 | 1.06 ± 0.045 | 1.089 ± 0.0097 | 1.07 ± 0.041 | 1.06 ± 0.043 | 1.1 ± 0.026 | 1.05 ± 0.025 | 1.05 ± 0.044
4 | CC1(C)CNc2cc(NC(=O)c3cccnc3NCc3ccncc3)ccc21 [Motesanib] | 1 ± 0.03 | 0.988 ± 0.014 | 0.972 ± 0.025 | 0.971 ± 0.029 | 0.95 ± 0.047 | 0.98 ± 0.012 | 0.971 ± 0.035 | 0.999 ± 0.015 | 0.978 ± 0.021 | 0.958 ± 0.035 | 0.811 ± 0.028
5 | CN1CCN(c2ccc3nc(-c4c(N)c5c(F)cccc5[nH]c4=O)[nH]c3c2)CC1 [Dovitinib] | 1.05 ± 0.054 | 1.04 ± 0.022 | 1.06 ± 0.015 | 1.08 ± 0.018 | 1.06 ± 0.045 | 1.05 ± 0.025 | 0.937 ± 0.097 | 0.891 ± 0.067 | 0.604 ± 0.03 | 0.402 ± 0.023 | 0.235 ± 0.022
6 | CNC(=O)c1cc(Oc2ccc(NC(=O)Nc3ccc(Cl)c(C(F)(F)F)c3)c(F)c2)ccn1 [Regorafenib] | 1.11 ± 0.07 | 1.12 ± 0.039 | 1.12 ± 0.034 | 1.14 ± 0.025 | 1.14 ± 0.017 | 1.119 ± 0.011 | 1.11 ± 0.013 | 1.07 ± 0.061 | 0.96 ± 0.027 | 0.824 ± 0.058 | 0.662 ± 0.027
7 | Cc1nc(NC(=O)N2CCC[C@H]2C(N)=O)sc1-c1ccnc(C(C)(C)C(F)(F)F)c1 [Alpelisib] | 1.04 ± 0.055 | 1.04 ± 0.046 | 1.03 ± 0.052 | 1 ± 0.062 | 0.965 ± 0.068 | 0.938 ± 0.077 | 0.835 ± 0.039 | 0.778 ± 0.062 | 0.698 ± 0.085 | 0.565 ± 0.035 | 0.398 ± 0.024
8 | CCN1CCN(Cc2ccc(Nc3ncc(F)c(-c4cc(F)c5nc(C)n(C(C)C)c5c4)n3)nc2)CC1 [Abemaciclib] | 1.01 ± 0.08 | 1.03 ± 0.038 | 1.01 ± 0.044 | 1.02 ± 0.046 | 1.01 ± 0.052 | 0.95 ± 0.095 | 0.874 ± 0.037 | 0.742 ± 0.025 | 0.678 ± 0.032 | 0.668 ± 0.018 | 0.709 ± 0.04
9 | CC[C@H](Nc1ncnc2[nH]cnc12)c1nc2cccc(F)c2c(=O)n1-c1ccccc1 [Idelalisib] | 1.09 ± 0.073 | 1.13 ± 0.052 | 1.1 ± 0.034 | 1.1 ± 0.046 | 1.11 ± 0.052 | 1.08 ± 0.055 | 1.07 ± 0.066 | 1.04 ± 0.087 | 0.945 ± 0.043 | 0.876 ± 0.051 | 0.746 ± 0.036
10 | C=CC(=O)N1CCC[C@@H](n2nc(-c3ccc(Oc4ccccc4)cc3)c3c(N)ncnc32)C1 [Ibrutinib] | 1.06 ± 0.016 | 1.06 ± 0.017 | 1.06 ± 0.064 | 1.01 ± 0.022 | 1.01 ± 0.042 | 0.976 ± 0.037 | 0.98 ± 0.081 | 0.923 ± 0.024 | 0.9099 ± 0.0036 | 0.84 ± 0.049 | 0.583 ± 0.027
